Test results: patent US20230301300A1, “HERBICIDAL COMPOSITIONS” (SYNGENTA CROP PROTECTION AG, priority 2020, published 2023)

Experiments:
Type in all cases: in vivo
[1] = tested on: Amaranthus retoflexus (AMARE); assay: B1 Post-Emergence Efficacy - Test 1; conditions: 1000 g/ha, after 13 days, five point scale
Procedure: (§1) Seeds of a variety of test species are sown in standard soil in pots:— Solanum nigrum (SOLNI), Amaranthus retoflexus (AMARE), Setaria faberi (SETFA), Alopecurus myosuroides (ALOMY), Echinochloa crus-galli (ECHCG), Ipomoea hederacea (IPOHE), Lolium perenne (LOLPE). After 8 days cultivation (post-emergence) under controlled conditions in a glasshouse (at 24/16° C., day/night; 14 hours light; 65% humidity), the plants are sprayed with an aqueous spray solution derived from the formulation of the technical active ingredient in acetone/water (50:50) solution containing 0.5% Tween 20 (polyoxyethylene sorbitan monolaurate, CAS RN 9005-64-5). Compounds are applied at 1000 g/ha. The test plants are then grown in a glasshouse under controlled conditions in a glasshouse (at 24/16° C., day/night; 14 hours light; 65% humidity) and watered twice daily. After 13 days, the test is evaluated for the percentage damage caused to the plant. The biological activities are assessed on a five point scale (5=80-100%; 4=60-79%; 3=40-59%; 2=20-39%; 1=0-19%). A blank value in the table is indicative that the compound was not tested on that species.

[2] = tested on: Echinochloa crus-galli (ECHCG); assay: B1 Post-Emergence Efficacy - Test 1; conditions: 1000 g/ha, after 13 days, five point scale
Procedure: as §1

[3] = tested on: Solanum nigrum (SOLNI); assay: B1 Post-Emergence Efficacy - Test 1; conditions: 1000 g/ha, after 13 days, five point scale
Procedure: as §1

[4] = tested on: Setaria faberi (SETFA); assay: B1 Post-Emergence Efficacy - Test 1; conditions: 1000 g/ha, after 13 days, five point scale
Procedure: as §1

[5] = tested on: Lolium perenne (LOLPE); assay: B1 Post-Emergence Efficacy - Test 1; conditions: 1000 g/ha, after 13 days, five point scale
Procedure: as §1

[6] = tested on: Ipomoea hederacea (IPOHE); assay: B1 Post-Emergence Efficacy - Test 1; conditions: 1000 g/ha, after 13 days, five point scale
Procedure: as §1

[7] = tested on: Abutilon theophrasti (ABUTH); assay: B2 Post-Emergence Efficacy - Test 2; conditions: 15 days after application, 0-100 scale
Procedure: (§2) Seeds of a variety of test species (see Table B1) were sown in standard soil in pots. After cultivation for 12 days (post-emergence) under controlled conditions in a glasshouse (at 24/18° C. or 20/16° C., at day/night; 16 hours light; 65% humidity), the plants were sprayed with an aqueous spray solution derived from the formulation of the technical active ingredient dissolved in IF50 (see Table B2 for composition) and adjuvant (Genapol X080) was added to the spray solution at a rate of 0.2% v/v.
(§3) After application, the test plants were grown in a glasshouse under controlled conditions (as above) and watered twice daily. Herbicidal activity was evaluated 15 days after application on a 0-100 scale. The results, where 0=no damage to test plant and 100=total kill of test plant are shown below in Tables 8 to 11.

[8] = tested on: Glycine max (GLXMA); assay: B2 Post-Emergence Efficacy - Test 2; conditions: 15 days after application; for Herbicidal activity GLXMA: 0-100 scale; for Herbicidal activity on a 0-100 scale, GLXMA: 0=no damage, 100=total kill
Procedure: as §2, §3

[9] = tested on: Echinochloa crus galli (ECHCG); assay: B2 Post-Emergence Efficacy - Test 2; conditions: 15 days after application, 0=no damage, 100=total kill
Procedure: as §2, §3

[10] = tested on: Setaria faberi (SETFA); assay: B2 Post-Emergence Efficacy - Test 2; conditions: 15 days after application, 0=no damage, 100=total kill
Procedure: as §2, §3

[11] = tested on: Hordeum vulgare (HORVW); assay: B2 Post-Emergence Efficacy - Test 2; conditions: 15 days after application, 0-100 scale
Procedure: as §2, §3

[12] = tested on: Amaranthus retroflexus (AMARE); assay: B2 Post-Emergence Efficacy - Test 2; conditions: 15 days after application, 0-100 scale
Procedure: as §2, §3

[13] = tested on: Brachiaria plantaginea (BRAPL); assay: B2 Post-Emergence Efficacy - Test 2; conditions: 15 days after application, 0=no damage, 100=total kill
Procedure: as §2, §3

[14] = tested on: Sinapis arvensis (SINAR); assay: B2 Post-Emergence Efficacy - Test 2; conditions: 15 days after application, 0-100 scale
Procedure: as §2, §3

[15] = tested on: Avena fatua (AVEFA); assay: B2 Post-Emergence Efficacy - Test 2; conditions: 15 days after application, 0-100 scale
Procedure: as §2, §3

[16] = tested on: Orysa sativa (ORYSA); assay: B2 Post-Emergence Efficacy - Test 2; conditions: 15 days after application; for Herbicidal activity ORYSA: 0-100 scale; for Herbicidal activity on a 0-100 scale, ORYSA: 0=no damage, 100=total kill
Procedure: as §2, §3

[17] = tested on: Ipomoea hederacea (IPOHE); assay: B2 Post-Emergence Efficacy - Test 2; conditions: 15 days after application, 0-100 scale
Procedure: as §2, §3

In the case of `Cc1nn(C)c(=O)c(-c2c(F)ccc(Cl)c2CCc2ccc(F)cc2)c1O` [Compound 1.048, 4-[3-chloro-6-fluoro-2-[2-(4-fluorophenyl)ethyl]phenyl]-5-hydroxy-2,6-dimethyl-pyridazin-3-one], the “percentage damage caused to the plant, AMARE” value [1] was 5 (5=80-100%), the “percentage damage caused to the plant, ECHCG” value [2] was 5 (5=80-100%) and the “percentage damage caused to the plant, SOLNI” value [3] was 5 (5=80-100%). The “percentage damage caused to the plant, SETFA” value [4] was 5 (5=80-100%), the “percentage damage caused to the plant, LOLPE” value [5] was 5 (5=80-100%) and the “percentage damage caused to the plant, IPOHE” value [6] was 5 (5=80-100%). For the same compound, the “Herbicidal activity ABUTH” value ([7]; 15 g/Ha) was 60, the “Herbicidal activity ABUTH” value ([7]; 30 g/Ha) was 80 and the “Herbicidal activity ABUTH” value ([7]; 60 g/Ha) was 90. The “Herbicidal activity ABUTH” value ([7]; 125 g/Ha) was 90, the “Herbicidal activity ABUTH” value ([7]; 250 g/Ha) was 90 and the “Herbicidal activity ABUTH” value ([7]; 500 g/Ha) was 100. For the same compound, the “Herbicidal activity GLXMA” value ([8]; 15 g/Ha) was 70, the “Herbicidal activity on a 0-100 scale, GLXMA” value ([8]; 15 g/Ha) was 70 and the “Herbicidal activity GLXMA” value ([8]; 30 g/Ha) was 80. The “Herbicidal activity on a 0-100 scale, GLXMA” value ([8]; 30 g/Ha) was 80, the “Herbicidal activity GLXMA” value ([8]; 60 g/Ha) was 90 and the “Herbicidal activity on a 0-100 scale, GLXMA” value ([8]; 60 g/Ha) was 90. The “Herbicidal activity GLXMA” value ([8]; 125 g/Ha) was 90, the “Herbicidal activity on a 0-100 scale, GLXMA” value ([8]; 125 g/Ha) was 90 and the “Herbicidal activity GLXMA” value ([8]; 250 g/Ha) was 90. The “Herbicidal activity on a 0-100 scale, GLXMA” value ([8]; 250 g/Ha) was 90, the “Herbicidal activity GLXMA” value ([8]; 500 g/Ha) was 100 and the “Herbicidal activity on a 0-100 scale, GLXMA” value ([8]; 500 g/Ha) was 100. For the same compound, the “Herbicidal activity on a 0-100 scale, ECHCG” value (“Herbicidal activity … ECHCG” for short) ([9]; 15 g/Ha) was 60, the “Herbicidal activity … ECHCG” value ([9]; 30 g/Ha) was 80 and the “Herbicidal activity … ECHCG” value ([9]; 60 g/Ha) was 80. The “Herbicidal activity … ECHCG” value ([9]; 125 g/Ha) was 90, the “Herbicidal activity … ECHCG” value ([9]; 250 g/Ha) was 90 and the “Herbicidal activity … ECHCG” value ([9]; 500 g/Ha) was 100. For the same compound, the “Herbicidal activity on a 0-100 scale, SETFA” value (“Herbicidal activity … SETFA” for short) ([10]; 15 g/Ha) was 0, the “Herbicidal activity … SETFA” value ([10]; 30 g/Ha) was 40 and the “Herbicidal activity … SETFA” value ([10]; 60 g/Ha) was 40. For the same compound, the “Herbicidal activity … SETFA” value ([10]; 125 g/Ha) was 70, the “Herbicidal activity … SETFA” value ([10]; 250 g/Ha) was 80 and the “Herbicidal activity … SETFA” value ([10]; 500 g/Ha) was 100. For the same compound, the “Herbicidal activity HORVW” value ([11]; 15 g/Ha) was 10, the “Herbicidal activity HORVW” value ([11]; 30 g/Ha) was 10 and the “Herbicidal activity HORVW” value ([11]; 60 g/Ha) was 10. The “Herbicidal activity HORVW” value ([11]; 125 g/Ha) was 40, the “Herbicidal activity HORVW” value ([11]; 250 g/Ha) was 40 and the “Herbicidal activity HORVW” value ([11]; 500 g/Ha) was 80. The “Herbicidal activity AMARE” value ([12]; 15 g/Ha) was 60, the “Herbicidal activity AMARE” value ([12]; 30 g/Ha) was 80 and the “Herbicidal activity AMARE” value ([12]; 60 g/Ha) was 90. For the same compound, the “Herbicidal activity AMARE” value ([12]; 125 g/Ha) was 90, the “Herbicidal activity AMARE” value ([12]; 250 g/Ha) was 100 and the “Herbicidal activity AMARE” value ([12]; 500 g/Ha) was 100. The “Herbicidal activity on a 0-100 scale, BRAPL” value (“Herbicidal activity … BRAPL” for short) ([13]; 15 g/Ha) was 20, the “Herbicidal activity … BRAPL” value ([13]; 30 g/Ha) was 60 and the “Herbicidal activity … BRAPL” value ([13]; 60 g/Ha) was 80. For the same compound, the “Herbicidal activity … BRAPL” value ([13]; 125 g/Ha) was 80, the “Herbicidal activity … BRAPL” value ([13]; 250 g/Ha) was 90 and the “Herbicidal activity … BRAPL” value ([13]; 500 g/Ha) was 100. For the same compound, the “Herbicidal activity SINAR” value ([14]; 15 g/Ha) was 40, the “Herbicidal activity SINAR” value ([14]; 30 g/Ha) was 80 and the “Herbicidal activity SINAR” value ([14]; 60 g/Ha) was 80. For the same compound, the “Herbicidal activity SINAR” value ([14]; 125 g/Ha) was 90, the “Herbicidal activity SINAR” value ([14]; 250 g/Ha) was 90 and the “Herbicidal activity SINAR” value ([14]; 500 g/Ha) was 90. The “Herbicidal activity AVEFA” value ([15]; 15 g/Ha) was 10, the “Herbicidal activity AVEFA” value ([15]; 30 g/Ha) was 30 and the “Herbicidal activity AVEFA” value ([15]; 60 g/Ha) was 60. For the same compound, the “Herbicidal activity AVEFA” value ([15]; 125 g/Ha) was 80, the “Herbicidal activity AVEFA” value ([15]; 250 g/Ha) was 90 and the “Herbicidal activity AVEFA” value ([15]; 500 g/Ha) was 90. For the same compound, the “Herbicidal activity ORYSA” value ([16]; 15 g/Ha) was 0, the “Herbicidal activity on a 0-100 scale, ORYSA” value ([16]; 15 g/Ha) was 0 and the “Herbicidal activity ORYSA” value ([16]; 30 g/Ha) was 0. For the same compound, the “Herbicidal activity on a 0-100 scale, ORYSA” value ([16]; 30 g/Ha) was 0, the “Herbicidal activity ORYSA” value ([16]; 60 g/Ha) was 0 and the “Herbicidal activity on a 0-100 scale, ORYSA” value ([16]; 60 g/Ha) was 0. The “Herbicidal activity ORYSA” value ([16]; 125 g/Ha) was 0, the “Herbicidal activity on a 0-100 scale, ORYSA” value ([16]; 125 g/Ha) was 0 and the “Herbicidal activity ORYSA” value ([16]; 250 g/Ha) was 10. The “Herbicidal activity on a 0-100 scale, ORYSA” value ([16]; 250 g/Ha) was 10, the “Herbicidal activity ORYSA” value ([16]; 500 g/Ha) was 30 and the “Herbicidal activity on a 0-100 scale, ORYSA” value ([16]; 500 g/Ha) was 30. The “Herbicidal activity IPOHE” value ([17]; 15 g/Ha) was 70, the “Herbicidal activity IPOHE” value ([17]; 30 g/Ha) was 80 and the “Herbicidal activity IPOHE” value ([17]; 60 g/Ha) was 100. For the same compound, the “Herbicidal activity IPOHE” value ([17]; 125 g/Ha) was 100, the “Herbicidal activity IPOHE” value ([17]; 250 g/Ha) was 100 and the “Herbicidal activity IPOHE” value ([17]; 500 g/Ha) was 100.
